Laboratory results from ChEMBL document CHEMBL1201862, “PubChem BioAssay data set” (2004).
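48-hour exposure; five concentrations; linearly interpolated endpoints. At the GI50, growth is halved.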 The source made the active and inactive calls. Cut-off read from the data, not from the text of the source: active = GI50 up to about 1.1 µM and inactive = higher.

Columns and labels:
Experiment in all cases: NCI-60 cell line screen, 48 h
[1] = tested on: SK-OV-3
[2] = tested on: MDA-N
[3] = tested on: K562
[4] = tested on: SF-539
[5] = tested on: LOX IMVI
[6] = tested on: OVCAR-3
[7] = tested on: Hs-578T
[8] = tested on: MCF7
[9] = tested on: U-251
[10] = tested on: HOP-92
[11] = tested on: UACC-62
[12] = tested on: MOLT-4
[13] = tested on: UACC-257
[14] = tested on: HCC 2998
[15] = tested on: ACHN
[16] = tested on: NCI-H522
[17] = tested on: SNB-19
[18] = tested on: 786-0
[19] = tested on: KM12
[20] = tested on: A498

SMILES | GI50 [1] | GI50 [2] | GI50 [3] | GI50 [4] | GI50 [5] | GI50 [6] | GI50 [7] | GI50 [8] | GI50 [9] | GI50 [10] | GI50 [11] | GI50 [12] | GI50 [13] | GI50 [14] | GI50 [15] | GI50 [16] | GI50 [17] | GI50 [18] | GI50 [19] | GI50 [20]
CCCN(CCC)C(=S)N/N=C(/C)c1ccccc1O | 10.2 µM (inactive) | 9.77 µM (inactive) | 4.06 µM (inactive) | 4.06 µM (inactive) | 3.46 µM (inactive) | 2.51 µM (inactive) | > 70 µM (inactive) | 4.02 µM (inactive) | 3.84 µM (inactive) | 15.9 µM (inactive) | 3.19 µM (inactive) | 4.04 µM (inactive) | 7.71 µM (inactive) | 10.3 µM (inactive) | 3.97 µM (inactive) | 1.19 µM (inactive) | 14.3 µM (inactive) | 3.32 µM (inactive) | 4.98 µM (inactive) | 14.3 µM (inactive)
C=C1C(=O)OC2C1CCC(=C)C1CC(O)C(=C)C12 (stereo not given) | 33.8 µM (inactive) | 11 µM (inactive) | 5.09 µM (inactive) | 16.9 µM (inactive) | 7.52 µM (inactive) | 13.3 µM (inactive) | 36.9 µM (inactive) | 7.43 µM (inactive) | 23.3 µM (inactive) | 3.21 µM (inactive) | 13.5 µM (inactive) | 8.38 µM (inactive) | 12.9 µM (inactive) | 14.3 µM (inactive) | 3.18 µM (inactive) | 2.58 µM (inactive) | 23.8 µM (inactive) | 5.5 µM (inactive) | 13.7 µM (inactive) | 20 µM (inactive)
Cc1nc2ccccc2c(-n2cccn2)c1CCn1cccn1 | > 100 µM (inactive) | > 100 µM (inactive) | 55 µM (inactive) | > 100 µM (inactive) | 50.6 µM (inactive) | 40.4 µM (inactive) | > 100 µM (inactive) | > 100 µM (inactive) | > 100 µM (inactive) | 52.8 µM (inactive) | 80.2 µM (inactive) | 39.4 µM (inactive) | > 100 µM (inactive) | > 100 µM (inactive) | 80.7 µM (inactive) | > 100 µM (inactive) | > 100 µM (inactive) | > 100 µM (inactive) | > 100 µM (inactive) | 46.3 µM (inactive)
COc1cccc(C2c3cc4c(cc3OC(NNS(=O)(=O)c3ccc(C)cc3)C2C)OCO4)c1OC (stereo not given) | 2.59 µM (inactive) | 3.37 µM (inactive) | 2.12 µM (inactive) | 2.97 µM (inactive) | 2.08 µM (inactive) | 1.75 µM (inactive) | 1.83 µM (inactive) | 2.99 µM (inactive) | 2.62 µM (inactive) | 2.15 µM (inactive) | 3.75 µM (inactive) | 2.74 µM (inactive) | 2.7 µM (inactive) | 5.36 µM (inactive) | 2.77 µM (inactive) | 1.88 µM (inactive) | 3.59 µM (inactive) | 22.2 µM (inactive) | 3.3 µM (inactive) | 2.41 µM (inactive)
Cc1ccc2c(c1)CC1(Cc3c(C)cccc3C1=O)C2=O (stereo not given) | 76.2 µM (inactive) | > 100 µM (inactive) | > 100 µM (inactive) | > 100 µM (inactive) | > 100 µM (inactive) | > 100 µM (inactive) | 22.6 µM (inactive) | > 100 µM (inactive) | 87.5 µM (inactive) | 40.2 µM (inactive) | 44.7 µM (inactive) | > 100 µM (inactive) | > 100 µM (inactive) | > 100 µM (inactive) | > 100 µM (inactive) | > 100 µM (inactive) | 37.6 µM (inactive) | > 100 µM (inactive) | > 100 µM (inactive) | > 100 µM (inactive)
C[As](C)SCC(NC(=O)CCC(N)C(=O)O)C(=O)NCC(=O)O.c1ccncc1 (stereo not given) | 7.31 µM (inactive) | 0.0431 µM (active) | 0.0266 µM (active) | 0.105 µM (active) | 0.18 µM (active) | 0.0399 µM (active) | 0.336 µM (active) | 0.126 µM (active) | 0.902 µM (active) | 0.0843 µM (active) | 0.269 µM (active) | 3.51 µM (inactive) | 0.459 µM (active) | 0.188 µM (active) | 0.117 µM (active) | 0.0824 µM (active) | 3.68 µM (inactive) | 0.0891 µM (active) | 0.361 µM (active) | 0.437 µM (active)
O=C(CCCCCCCCC(=O)N1C(=O)CC(=O)N(c2ccc(Cl)cc2)C1=S)N1C(=O)CC(=O)N(c2ccc(Cl)cc2)C1=S | 73.3 µM (inactive) | 38.6 µM (inactive) | 17.5 µM (inactive) | > 100 µM (inactive) | 54.8 µM (inactive) | 51.3 µM (inactive) | > 100 µM (inactive) | 37.8 µM (inactive) | > 100 µM (inactive) | > 100 µM (inactive) | 15.5 µM (inactive) | 19.8 µM (inactive) | > 100 µM (inactive) | 38.9 µM (inactive) | 35.4 µM (inactive) | 29 µM (inactive) | 74.1 µM (inactive) | 67.9 µM (inactive) | 27.4 µM (inactive) | > 100 µM (inactive)
O=C(O)c1cc(/N=N/c2ccc([N+](=O)[O-])cc2)ccc1O | 81.7 µM (inactive) | 43.9 µM (inactive) | 29.6 µM (inactive) | 33.3 µM (inactive) | 39.7 µM (inactive) | 15.6 µM (inactive) | 37.6 µM (inactive) | 30.8 µM (inactive) | 21.6 µM (inactive) | 18 µM (inactive) | 31.3 µM (inactive) | 24.8 µM (inactive) | 24 µM (inactive) | 18.7 µM (inactive) | 37.3 µM (inactive) | 28 µM (inactive) | 30.9 µM (inactive) | 34.3 µM (inactive) | 33.2 µM (inactive) | 19.5 µM (inactive)
C[n+]1c(-c2ccc(/C=N/NC(=O)c3ccc(C(=O)N/N=C/c4ccc(-c5cn6ccccc6[n+]5C)cc4)cc3)cc2)cn2ccccc21 | > 100 µM (inactive) | > 70 µM (inactive) | > 100 µM (inactive) | > 84.9 µM (inactive) | > 100 µM (inactive) | > 100 µM (inactive) | > 100 µM (inactive) | > 100 µM (inactive) | > 100 µM (inactive) | > 100 µM (inactive) | > 81.8 µM (inactive) | > 100 µM (inactive) | > 63.7 µM (inactive) | > 100 µM (inactive) | > 73.3 µM (inactive) | > 100 µM (inactive) | > 100 µM (inactive) | 13.9 µM (inactive) | > 100 µM (inactive) | 29.2 µM (inactive)
